Measurements: US4003891A, “Preparation of metal complexes of 6-methoxy-1-phenazinol 5,10 dioxide” (Hoffmann-La Roche Inc., priority 1975, dated 1977)

How the values were obtained:
[1] = system: E. coli; test: In vivo anti-microbial efficacy against bacteria (ED50')
Protocol: (§1) For example, the anti-microbial activity of calcium myxin dihydrate, prepared by the method of this invention, is evaluated and compared to that of myxin itself both in vivo against 4 strains of bacteria and in vitro against yeast and fungus infections.

[2] = system: P. aeruginosa; test: as above
Protocol: as §1

[3] = system: S. agalactiae; test: as above
Protocol: as §1

[4] = system: S. aureus; test: as above
Protocol: as §1

[5] = Solubility in water; assay type: physicochemical

Row | Compound | ED50' [1] | ED50' [2] | ED50' [3] | ED50' [4] | solubility in water [5]
1 | 6-methoxy-1-phenazinol 5,10-dioxide, calcium dihydrate complex [Calcium Myxin Dihydrate] | 60 µg/mL | 20 µg/mL | < 4 µg/mL | < 20 µg/mL | –
2 | COc1cccc2c1[n+]([O-])c1cccc(O)c1[n+]2[O-] [Myxin, 6-methoxy-1-phenazinol 5,10-dioxide] | – | – | – | – | very slightly soluble
